Assay results reported in ChEMBL document CHEMBL6114965, “Novel dual-targeting PROTAC degraders of GSK-3β and CDK5: A promising approach for pancreatic cancer treatment” (Bioorg Med Chem, 2025).
Activity calls are given as the source filed them. The rule behind the calls is not given here.

Experiments:
[1] = Tmax in mouse at 5 mg/kg, po; assay type: ADME, organism-based; conditions: in vivo
Cytochrome P450 2C9 = Cytochrome P450 2C9 (Homo sapiens, UniProt P11712); assay: Inhibition of CYP2C9 (unknown origin) using diclofenac as substrate […]; assay type: ADME
Cytochrome P450 2C9, sequence (P11712 whole entry): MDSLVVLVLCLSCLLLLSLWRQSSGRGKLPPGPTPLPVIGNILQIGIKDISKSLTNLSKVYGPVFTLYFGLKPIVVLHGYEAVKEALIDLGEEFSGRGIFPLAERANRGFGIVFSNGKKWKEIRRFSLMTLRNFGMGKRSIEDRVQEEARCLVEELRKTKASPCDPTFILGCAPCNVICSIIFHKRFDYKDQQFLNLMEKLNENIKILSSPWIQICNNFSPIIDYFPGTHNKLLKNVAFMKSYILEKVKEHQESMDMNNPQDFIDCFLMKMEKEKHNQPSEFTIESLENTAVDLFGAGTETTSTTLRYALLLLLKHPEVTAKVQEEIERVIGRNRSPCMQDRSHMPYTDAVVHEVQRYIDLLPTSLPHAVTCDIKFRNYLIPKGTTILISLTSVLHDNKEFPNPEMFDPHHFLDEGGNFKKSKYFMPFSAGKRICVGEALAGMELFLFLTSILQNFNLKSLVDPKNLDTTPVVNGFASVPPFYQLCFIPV

[2] = Oral bioavailability in mouse at 5 mg/kg; assay type: ADME, organism-based; conditions: in vivo
[3] = AUC in mouse at 5 mg/kg, iv; assay type: ADME, organism-based; conditions: in vivo
MIA PaCa-2 = assay: Antiproliferative activity against human MIA PaCa-2 cells assessed as inhibition of cell viability by MTT assay; assay type: functional, cell-based
Cytochrome P450 3A4 [4] = target: T1, Cytochrome P450 3A4 (Homo sapiens, UniProt P08684); assay: Inhibition of CYP3A4 (unknown origin) using midazolam as substrate […]; assay type: ADME
T1 sequence (P08684 whole entry): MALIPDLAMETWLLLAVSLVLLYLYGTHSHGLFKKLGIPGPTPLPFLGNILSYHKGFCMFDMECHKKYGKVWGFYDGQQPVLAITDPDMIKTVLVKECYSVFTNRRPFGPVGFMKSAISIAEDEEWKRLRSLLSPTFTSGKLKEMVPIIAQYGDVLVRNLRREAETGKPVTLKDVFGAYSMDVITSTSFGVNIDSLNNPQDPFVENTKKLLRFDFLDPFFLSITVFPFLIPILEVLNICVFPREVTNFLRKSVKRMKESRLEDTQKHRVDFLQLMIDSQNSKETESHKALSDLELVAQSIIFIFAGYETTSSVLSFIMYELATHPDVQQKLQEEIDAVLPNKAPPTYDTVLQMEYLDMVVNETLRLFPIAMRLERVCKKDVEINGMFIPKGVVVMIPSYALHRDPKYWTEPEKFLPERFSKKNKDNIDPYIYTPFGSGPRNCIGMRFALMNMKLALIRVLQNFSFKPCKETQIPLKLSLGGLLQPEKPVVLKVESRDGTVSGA

[5] = target: T2, Protein cereblon/Cyclin-dependent kinase 5 (Homo sapiens, UniProt Q00535+Q96SW2); assay: PROTAC activity at CRBN/CDK5 in human PANC-1 cells assessed as induction of CDK5 degradation at 0.5 to 2.8 uM incubated for 10 hrs in presence of MG132 by Western blot analysis; assay type: cell-based; conditions: dose 0.5-2.8 µM
Target sequence in this assay (Q00535 whole entry, looked up): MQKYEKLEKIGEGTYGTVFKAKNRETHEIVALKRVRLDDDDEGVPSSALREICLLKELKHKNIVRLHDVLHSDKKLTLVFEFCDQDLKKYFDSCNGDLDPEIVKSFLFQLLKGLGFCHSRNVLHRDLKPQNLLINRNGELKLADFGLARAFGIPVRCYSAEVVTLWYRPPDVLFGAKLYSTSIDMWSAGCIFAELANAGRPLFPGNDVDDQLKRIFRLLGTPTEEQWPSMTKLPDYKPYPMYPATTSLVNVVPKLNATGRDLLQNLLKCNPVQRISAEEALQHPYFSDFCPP
Target sequence in this assay (Q96SW2 whole entry, looked up): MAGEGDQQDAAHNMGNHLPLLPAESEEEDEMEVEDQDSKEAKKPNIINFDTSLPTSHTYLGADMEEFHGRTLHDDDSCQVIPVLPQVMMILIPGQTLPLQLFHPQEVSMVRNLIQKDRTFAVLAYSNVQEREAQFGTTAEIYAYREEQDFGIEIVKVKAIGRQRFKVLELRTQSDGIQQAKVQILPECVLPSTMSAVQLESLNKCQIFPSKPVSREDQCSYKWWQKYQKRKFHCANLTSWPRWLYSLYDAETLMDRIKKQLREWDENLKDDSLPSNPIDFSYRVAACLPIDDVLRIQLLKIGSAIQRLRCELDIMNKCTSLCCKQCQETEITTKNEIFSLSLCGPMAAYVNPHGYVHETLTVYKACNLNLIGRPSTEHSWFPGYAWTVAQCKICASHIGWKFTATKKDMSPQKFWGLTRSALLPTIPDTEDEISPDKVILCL

[6] = Tmax in mouse at 5 mg/kg, iv; assay type: ADME, organism-based; conditions: in vivo
[7] = target: T2, Protein cereblon/Cyclin-dependent kinase 5; assay: PROTAC activity at CRBN/CDK5 in human PANC-1 cells assessed as induction of CDK5 degradation at 1 to 2.8 uM incubated for 10 hrs by Western blot analysis; assay type: cell-based; conditions: dose 1-2.8 µM
Target sequence in this assay (Q00535 whole entry, looked up): as the sequence (Q00535 whole entry, looked up) above
Target sequence in this assay (Q96SW2 whole entry, looked up): as the sequence (Q96SW2 whole entry, looked up) above

Cytochrome P450 1A2 = target: T3, Cytochrome P450 1A2 (Homo sapiens, UniProt P05177); assay: Inhibition of CYP1A2 (unknown origin) using phenacetin as substrate […]; assay type: ADME
T3 sequence (P05177 whole entry): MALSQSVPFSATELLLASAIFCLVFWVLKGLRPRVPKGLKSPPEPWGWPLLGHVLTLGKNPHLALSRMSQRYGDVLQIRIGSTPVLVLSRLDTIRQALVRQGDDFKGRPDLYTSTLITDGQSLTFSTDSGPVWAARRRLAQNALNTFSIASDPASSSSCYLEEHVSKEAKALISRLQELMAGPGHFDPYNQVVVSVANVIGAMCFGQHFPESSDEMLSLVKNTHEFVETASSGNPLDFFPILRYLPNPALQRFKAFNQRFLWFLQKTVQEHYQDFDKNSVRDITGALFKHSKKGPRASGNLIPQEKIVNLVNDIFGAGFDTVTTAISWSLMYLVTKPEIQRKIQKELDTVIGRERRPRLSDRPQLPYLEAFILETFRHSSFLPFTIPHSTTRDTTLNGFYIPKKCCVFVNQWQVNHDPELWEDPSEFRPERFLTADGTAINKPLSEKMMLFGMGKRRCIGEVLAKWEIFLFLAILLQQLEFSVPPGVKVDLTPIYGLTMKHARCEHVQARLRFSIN

[8] = Half-life in mouse at 5 mg/kg, iv; assay type: ADME, organism-based; conditions: in vivo
[9] = target: T2, Protein cereblon/Cyclin-dependent kinase 5; assay: PROTAC activity at CRBN/CDK5 in human PANC-1 cells assessed as induction of CDK5 degradation by target engagement binding based cell-ELISA
Target sequence in this assay (Q00535 whole entry): as the sequence (Q00535 whole entry, looked up) above
Target sequence in this assay (Q96SW2 whole entry): as the sequence (Q96SW2 whole entry, looked up) above

[10] = target: T4, Protein cereblon/Glycogen synthase kinase-3 beta (Homo sapiens, UniProt P49841+Q96SW2); assay: PROTAC activity at CRBN/GSK3beta in human PANC-1 cells assessed as induction of GSK3beta degradation by measuring maximal efficacy by target engagement binding based cell-ELISA relative to control
Target sequence in this assay (P49841 whole entry, looked up): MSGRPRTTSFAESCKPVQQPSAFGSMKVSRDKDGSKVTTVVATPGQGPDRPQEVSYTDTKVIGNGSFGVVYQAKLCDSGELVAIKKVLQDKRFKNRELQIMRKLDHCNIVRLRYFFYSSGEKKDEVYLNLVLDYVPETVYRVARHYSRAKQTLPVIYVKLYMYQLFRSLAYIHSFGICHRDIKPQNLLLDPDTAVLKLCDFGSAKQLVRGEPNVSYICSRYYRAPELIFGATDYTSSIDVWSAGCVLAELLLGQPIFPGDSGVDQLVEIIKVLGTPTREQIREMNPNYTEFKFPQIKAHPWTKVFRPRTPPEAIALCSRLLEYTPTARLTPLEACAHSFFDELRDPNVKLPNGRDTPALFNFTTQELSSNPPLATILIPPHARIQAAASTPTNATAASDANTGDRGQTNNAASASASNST
Target sequence in this assay (Q96SW2 whole entry, looked up): as the sequence (Q96SW2 whole entry, looked up) above

[11] = target: T2, Protein cereblon/Cyclin-dependent kinase 5; assay: PROTAC activity at CRBN/CDK5 in human PANC-1 cells assessed as induction of CDK5 degradation by measuring maximal efficacy by target engagement binding based cell-ELISA relative to control
Target sequence in this assay (Q00535 whole entry, looked up): as the sequence (Q00535 whole entry, looked up) above
Target sequence in this assay (Q96SW2 whole entry, looked up): as the sequence (Q96SW2 whole entry, looked up) above

[12] = Bioavailability in mouse at 5 mg/kg, […]; assay type: ADME, organism-based; conditions: in vivo
[13] = AUC in mouse at 5 mg/kg, po; assay type: ADME, organism-based; conditions: in vivo
[14] = target: T4, Protein cereblon/Glycogen synthase kinase-3 beta; assay: PROTAC activity at CRBN/GSK3beta in human PANC-1 cells assessed as induction of GSK3beta degradation by target engagement binding based cell-ELISA
Target sequence in this assay (P49841 whole entry): as the sequence (P49841 whole entry, looked up) above
Target sequence in this assay (Q96SW2 whole entry): as the sequence (Q96SW2 whole entry, looked up) above

[15] = Cmax in mouse at 5 mg/kg, po; assay type: ADME, organism-based; conditions: in vivo
[16] = Permeability of compound in PBS at pH 7.4 at 500 uM incubated for 4 hrs by UV spectrophotometry based PAMPA; assay type: ADME; conditions: read-out: permeability
Cytochrome P450 3A4 [17] = target: T1, Cytochrome P450 3A4; assay: Inhibition of CYP3A4 (unknown origin) using testosterone as substrate […]; assay type: ADME
Cytochrome P450 2D6 = Cytochrome P450 2D6 (Homo sapiens, UniProt P10635); assay: Inhibition of CYP2D6 (unknown origin) using dextromethorphan as substrate […]; assay type: ADME
Cytochrome P450 2D6, sequence (P10635 whole entry): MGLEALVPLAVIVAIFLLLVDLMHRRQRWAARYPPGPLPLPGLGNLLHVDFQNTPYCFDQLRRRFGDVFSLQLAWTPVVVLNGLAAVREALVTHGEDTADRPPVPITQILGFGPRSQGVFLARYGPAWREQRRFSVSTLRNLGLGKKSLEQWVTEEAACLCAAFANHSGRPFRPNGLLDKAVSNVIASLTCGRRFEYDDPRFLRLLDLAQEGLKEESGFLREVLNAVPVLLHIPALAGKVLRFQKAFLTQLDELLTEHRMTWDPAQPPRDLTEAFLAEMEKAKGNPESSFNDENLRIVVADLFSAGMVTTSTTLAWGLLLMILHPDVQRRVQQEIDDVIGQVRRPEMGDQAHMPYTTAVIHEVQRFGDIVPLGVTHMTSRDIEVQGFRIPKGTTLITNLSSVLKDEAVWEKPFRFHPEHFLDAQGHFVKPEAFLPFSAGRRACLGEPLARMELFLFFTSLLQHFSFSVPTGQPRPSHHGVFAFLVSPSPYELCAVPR

[18] = Observed clearance in mouse at 5 mg/kg, po; assay type: ADME, organism-based; conditions: in vivo
[19] = target: T4, Protein cereblon/Glycogen synthase kinase-3 beta; assay: PROTAC activity at CRBN/GSK3beta in human PANC-1 cells assessed as induction of GSK3beta degradation at 1 to 2.8 uM incubated for 10 hrs by Western blot analysis; assay type: cell-based; conditions: dose 1-2.8 µM
Target sequence in this assay (P49841 whole entry, looked up): as the sequence (P49841 whole entry, looked up) above
Target sequence in this assay (Q96SW2 whole entry, looked up): as the sequence (Q96SW2 whole entry, looked up) above

[20] = Half-life in mouse at 5 mg/kg, po; assay type: ADME, organism-based; conditions: in vivo
Cytochrome P450 2C8 = target: T5, Cytochrome P450 2C8 (Homo sapiens, UniProt P10632); assay: Inhibition of CYP2C8 (unknown origin) using amodiaquine as substrate […]; assay type: ADME
T5 sequence (P10632 whole entry): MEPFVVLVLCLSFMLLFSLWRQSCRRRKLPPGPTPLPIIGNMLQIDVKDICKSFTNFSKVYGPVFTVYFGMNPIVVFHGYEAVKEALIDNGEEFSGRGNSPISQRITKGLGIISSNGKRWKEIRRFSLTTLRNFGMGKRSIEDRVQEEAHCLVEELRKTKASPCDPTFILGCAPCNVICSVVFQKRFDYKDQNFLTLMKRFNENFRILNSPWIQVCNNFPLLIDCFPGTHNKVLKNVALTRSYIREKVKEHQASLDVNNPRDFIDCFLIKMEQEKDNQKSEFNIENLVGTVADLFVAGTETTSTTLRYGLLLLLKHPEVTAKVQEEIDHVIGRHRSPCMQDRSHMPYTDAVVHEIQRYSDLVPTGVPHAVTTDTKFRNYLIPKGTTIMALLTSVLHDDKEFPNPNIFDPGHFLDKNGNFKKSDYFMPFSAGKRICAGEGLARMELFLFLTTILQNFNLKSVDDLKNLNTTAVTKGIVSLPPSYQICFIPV

BXPC-3 = assay: Antiproliferative activity against human BXPC-3 cells assessed as inhibition of cell viability by MTT assay; assay type: functional, cell-based
[21] = target: T4, Protein cereblon/Glycogen synthase kinase-3 beta; assay: PROTAC activity at CRBN/GSK3beta in human PANC-1 cells assessed as induction of GSK3beta degradation at 0.5 to 2.8 uM incubated for 10 hrs in presence of MG132 by Western blot analysis; assay type: cell-based; conditions: dose 0.5-2.8 µM
Target sequence in this assay (P49841 whole entry, looked up): as the sequence (P49841 whole entry, looked up) above
Target sequence in this assay (Q96SW2 whole entry, looked up): as the sequence (Q96SW2 whole entry, looked up) above

Cytochrome P450 2C19 = Cytochrome P450 2C19 (Homo sapiens, UniProt P33261); assay: Inhibition of CYP2C19 (unknown origin) using s-mephenytoin as substrate […]; assay type: ADME
Cytochrome P450 2C19, sequence (P33261 whole entry): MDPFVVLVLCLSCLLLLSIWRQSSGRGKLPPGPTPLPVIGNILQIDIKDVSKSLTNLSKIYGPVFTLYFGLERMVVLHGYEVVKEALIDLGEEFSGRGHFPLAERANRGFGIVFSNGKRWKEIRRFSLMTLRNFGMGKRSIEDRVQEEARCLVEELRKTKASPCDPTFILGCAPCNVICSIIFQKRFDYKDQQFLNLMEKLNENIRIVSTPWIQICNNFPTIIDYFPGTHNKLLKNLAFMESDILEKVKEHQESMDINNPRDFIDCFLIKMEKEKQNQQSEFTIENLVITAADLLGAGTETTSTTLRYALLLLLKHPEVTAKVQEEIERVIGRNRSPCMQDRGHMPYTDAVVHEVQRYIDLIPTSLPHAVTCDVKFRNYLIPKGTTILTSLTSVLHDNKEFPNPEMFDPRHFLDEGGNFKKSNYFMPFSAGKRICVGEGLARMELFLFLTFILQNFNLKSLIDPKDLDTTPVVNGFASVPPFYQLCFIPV

Cytochrome P450 2B6 = target: T6, Cytochrome P450 2B6 (Homo sapiens, UniProt P20813); assay: Inhibition of CYP2B6 (unknown origin) using bupropion as substrate […]; assay type: ADME
T6 sequence (P20813 whole entry): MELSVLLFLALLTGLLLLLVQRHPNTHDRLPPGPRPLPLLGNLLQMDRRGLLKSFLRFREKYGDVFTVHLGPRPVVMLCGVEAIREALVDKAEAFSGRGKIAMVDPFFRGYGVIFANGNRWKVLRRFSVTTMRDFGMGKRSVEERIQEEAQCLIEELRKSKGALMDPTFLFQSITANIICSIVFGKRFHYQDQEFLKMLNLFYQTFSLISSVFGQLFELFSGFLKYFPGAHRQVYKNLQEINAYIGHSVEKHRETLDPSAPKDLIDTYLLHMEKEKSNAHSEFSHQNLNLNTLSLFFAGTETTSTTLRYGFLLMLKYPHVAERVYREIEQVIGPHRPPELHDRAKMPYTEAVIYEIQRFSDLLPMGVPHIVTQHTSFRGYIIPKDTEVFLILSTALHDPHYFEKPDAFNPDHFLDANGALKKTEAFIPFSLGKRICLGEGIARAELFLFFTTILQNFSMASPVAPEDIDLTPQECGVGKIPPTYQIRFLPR

[22] = Cytotoxicity against human A549 cells; assay type: toxicity, cell-based
[23] = Cmax in mouse at 5 mg/kg, iv; assay type: ADME, organism-based; conditions: in vivo
[24] = Cytotoxicity against human HepG2 cells; assay type: toxicity, cell-based
[25] = Metabolic stability in pooled human liver microsomes assessed as half-life at 100 uM measured upto 120 mins by LC-MS/MS analysis; assay type: ADME, Microsome
PANC-1 = assay: Antiproliferative activity against human PANC-1 cells assessed as inhibition of cell viability by MTT assay; assay type: functional, cell-based
ASPC1 = assay: Antiproliferative activity against human ASPC1 cells assessed as inhibition of cell viability by MTT assay; assay type: functional, cell-based

O=C1CCC(N2C(=O)c3cccc(NCCCCCn4cc(CN5CCN(CCCn6cc(C7=C(c8c[nH]c9ccccc89)C(=O)NC7=O)c7ccccc76)CC5)nn4)c3C2=O)C(=O)N1 (stereo not given)
Tmax [1]: 2 h | IC50 (Cytochrome P450 2C9): 33.3 µM | F [2]: 15% | AUC [3]: 3700 ng·h/mL | IC50 (MIA PaCa-2): 2.16 µM | IC50 (Cytochrome P450 3A4 [4]): 39.2 µM | Activity [5]: inactive | Tmax [6]: 4 h | Activity [7]: Active | IC50 (Cytochrome P450 1A2): 55.2 µM | half-life [8]: 6 h | DC50 [9]: 0.048 µM | Emax [10]: 90% | Emax [11]: 88% | bioavailability [12]: 35% | AUC [13]: 1550 ng·h/mL | DC50 [14]: 0.042 µM | Cmax [15]: 761 ng/mL | Papp at 4 h, 500 µM [16]: 79.9 ×10⁻⁶ cm/s | IC50 (Cytochrome P450 3A4 [17]): 25.3 µM | IC50 (Cytochrome P450 2D6): 45.5 µM | CL/F [18]: 90 mL/min/kg | Activity [19]: Active | half-life [20]: 4 h | IC50 (Cytochrome P450 2C8): > 100 µM | IC50 (BXPC-3): 2.95 µM | Activity [21]: inactive | IC50 (Cytochrome P450 2C19): 46.2 µM | IC50 (Cytochrome P450 2B6): 45.3 µM | CC50 [22]: 8.23 µM | Cmax [23]: 961 ng/mL | CC50 [24]: 9.05 µM | half-life at 100 µM [25]: 0.934 h | IC50 (PANC-1): 1.81 µM | IC50 (ASPC1): 1.96 µM
